Earlier results on one compound are cited in patent publication US20200016150A1, “TREATMENT OF THE PRURITIC SYMPTOMS OF LIVER DISEASE” (TREVI THERAPEUTICS, INC., priority 2018, published 2020).

For the series the following is noted: injectable formulations (i.e., IV or IM or SC).

As a reminder, the half-life is the time in which the quantity being followed falls by half. Regarding `Cl.Oc1ccc2c3c1OC1[C@@H](O)CC[C@@]4(O)[C@@H](C2)N(CC2CCC2)CC[C@]314` (stereo partly drawn) [nalbuphine, 17-(cyclobutylmethyl)-4,5α-epoxymorphinan-3, 6α, 14-triol, hydrochloride], the half-life is 2 to 3 h.
